SMILES strings stand for the structures. In brackets after ≈: the same amount, converted by molar mass. Where two headings read alike, the source gives them in different places. Where only a bound is given, the exact number is not on record here.

What all share (test): agar dilution test (MIC)
Assay type in all cases: cell-based

In one assay the test system is E.coli DC2. As to conditions: Escherichia coli, Mueller Hinton agar, 16 to 18 hours at 37°C, read-out: Minimum Inhibitory Concentration (MIC). As to the method:
(§1) The antimicrobial activity was determined by measuring the Minimum Inhibitory Concentration (MIC). The MIC of the compounds was determined by a standard test, the "agar dilution test" according to Lorian (Antibiotics in Laboratory Medicine, Williams and Wilkins, Baltimore/London 1980) as follows:
(§2) A two-fold decreasing concentration series of each compound was prepared in Petri dishes containing 15 ml of Mueller Hinton agar (Difco). One Petri dish containing only the Mueller Hinton agar served as control for bacterial growth. Each Petri dish was inoculated with a multi-point inoculator (Denley), which transferred 0.6µl of a 1:100 diluted 18 hours culture of the appropriate test bacterium. After 16 to 18 hours of incubation at 37°C the Petri dishes were examined for growth of bacteria. The lowest concentration of the compound which causes complete inhibition of growth is taken as the MIC except that the growth of a single colony or a haze is not taken as evidence of qrowth.

A further assay relates to Kl.aerog. 1522E. As to conditions: read-out: Minimum Inhibitory Concentration (MIC). As to the method:
as §1, §2

For the next assay, the system named is E.coli 055. As to conditions: Escherichia coli, Mueller Hinton agar, 16 to 18 hours at 37°C, read-out: Minimum Inhibitory Concentration (MIC). As to the method: as §1, §2
For the next assay, the system named is Bac.subt. ATCC6633. As to conditions: Mueller Hinton agar, 16 to 18 hours at 37°C, read-out: Minimum Inhibitory Concentration (MIC). Here is the method:
as §1, §2

Another assay has as its system E.coli TEM. As to conditions: Escherichia coli, read-out: Minimum Inhibitory Concentration (MIC). As to the method:
as §1, §2

The subject of the next assay is Str.pyogenes 308A. As to conditions: Streptococcus pyogenes, Mueller Hinton agar, 16 to 18 hours at 37°C, read-out: Minimum Inhibitory Concentration (MIC). Here is the method:
as §1, §2

The subject of a further assay is Staph.aureus 285. As to conditions: Staphylococcus aureus, Mueller Hinton agar, 16 to 18 hours at 37°C, read-out: Minimum Inhibitory Concentration (MIC). Here is the method:
as §1, §2

A further assay deals with E.coli 1507E. As to conditions: Escherichia coli, read-out: Minimum Inhibitory Concentration (MIC). As to the method:
as §1, §2

The subject of a further assay is Str.faecium D. As to conditions: Enterococcus faecium; Str.faecium D; Mueller Hinton agar, 16 to 18 hours at 37°C; read-out: Minimum Inhibitory Concentration (MIC). Here is the method: as §1, §2
Another assay relates to Staph.aureus 503. As to conditions: Staphylococcus aureus, Mueller Hinton agar, 16 to 18 hours at 37°C, read-out: Minimum Inhibitory Concentration (MIC). Here is the method:
as §1, §2

The next assay concerns Staph.aureus SG511. As to conditions: Staphylococcus aureus, Mueller Hinton agar, 16 to 18 hours at 37°C, read-out: Minimum Inhibitory Concentration (MIC). As to the method: as §1, §2
The subject of the next assay is E.coli DC0. As to conditions: Escherichia coli, Mueller Hinton agar, 16 to 18 hours at 37°C, read-out: Minimum Inhibitory Concentration (MIC). As to the method: as §1, §2
The test system of another assay is Ent.cloacae P99. As to conditions: Enterobacter cloacae, Mueller Hinton agar, 16 to 18 hours at 37°C, read-out: Minimum Inhibitory Concentration (MIC). Here is the method:
as §1, §2

For another assay, the system named is Kl.aerog. 1082E. As to conditions: Mueller Hinton agar, 16 to 18 hours at 37°C, read-out: Minimum Inhibitory Concentration (MIC). Here is the method:
as §1, §2

For the next assay, the system named is Str.pyogenes 77A. As to conditions: Streptococcus pyogenes, Mueller Hinton agar, 16 to 18 hours at 37°C, read-out: Minimum Inhibitory Concentration (MIC). As to the method: as §1, §2
Another assay concerns E.coli KN126. As to conditions: Escherichia coli, Mueller Hinton agar, 16 to 18 hours at 37°C, read-out: Minimum Inhibitory Concentration (MIC). Here is the method:
as §1, §2

For a further assay, the system named is Ent.cloacae 1321E. As to conditions: Enterobacter cloacae, read-out: Minimum Inhibitory Concentration (MIC). Here is the method:
as §1, §2

The mark [1] stands for this setting: Kl.aerog. 1522E, Mueller Hinton agar, 16 to 18 hours at 37°C.
Setting [2] is: E.coli 1507E, Mueller Hinton agar, 16 to 18 hours at 37°C.
The mark [3] stands for this setting: Ent.cloacae 1321E, Mueller Hinton agar, 16 to 18 hours at 37°C.

Regarding `C[C@@H](O)[C@H]1C(=O)N2C(C(=O)O)=C(c3cccc(C(N)=O)c3)S[C@H]12` [Example 3-CONH2, 5R,3-(3-aminocarbonylphenyl)-6S-(1R-hydroxyethyl)-7-oxo-4-thia-l-azabicyclo[3.2.0]hept-2-ene-2-carboxylate], the MIC was 0.1 µg/mL (≈ 0.299 µM) in the assay on E.coli DC2; 0.19 µg/mL (≈ 0.568 µM) with Kl.aerog. 1522E (setting [1]); 0.1 µg/mL (≈ 0.299 µM) in the assay on E.coli 055; 0.05 µg/mL (≈ 0.15 µM) with Bac.subt. ATCC6633; 0.19 µg/mL (≈ 0.568 µM) with E.coli TEM; 0.006 µg/mL (≈ 0.0179 µM) in the assay on Str.pyogenes 308A. Moreover, the MIC came out at 0.1 µg/mL (≈ 0.299 µM) with Staph.aureus 285; 0.19 µg/mL (≈ 0.568 µM) in the assay on E.coli 1507E (setting [2]); 1.56 µg/mL (≈ 4.67 µM) in the assay with Str.faecium D; 0.1 µg/mL (≈ 0.299 µM) in the assay with Staph.aureus 503; 0.05 µg/mL (≈ 0.15 µM) with Staph.aureus SG511; 0.39 µg/mL (≈ 1.17 µM) in the assay on E.coli DC0. Further, the MIC in the assay on Ent.cloacae P99 was determined as 1.56 µg/mL (≈ 4.67 µM); with Kl.aerog. 1082E, 0.1 µg/mL (≈ 0.299 µM); in the assay with Str.pyogenes 77A, 0.013 µg/mL (≈ 0.0389 µM); in the assay with E.coli KN126, 0.1 µg/mL (≈ 0.299 µM); in the assay on Ent.cloacae 1321E (setting [3]), 0.1 µg/mL (≈ 0.299 µM).

For `C[C@@H](O)[C@H]1C(=O)N2C(C(=O)O)=C(c3cccc(NC=O)c3)S[C@H]12` [Example 3-NHCHO, 3-(3-formylaminophenyl)-6-(1-hydroxyethyl)-7-oxo-4-thia-l-azabicyclo[3.2.0]hept-2-ene 2-carboxylic acid], the MIC is 0.39 µg/mL (≈ 1.17 µM) with E.coli DC2; 0.39 µg/mL (≈ 1.17 µM) in the assay on Kl.aerog. 1522E (setting [1]); 0.39 µg/mL (≈ 1.17 µM) in the assay on E.coli 055; 0.1 µg/mL (≈ 0.299 µM) in the assay with Bac.subt. ATCC6633; 0.78 µg/mL (≈ 2.33 µM) in the assay on E.coli TEM; below 0.025 µg/mL in the assay on Str.pyogenes 308A. For the same molecule, the MIC in the assay on Staph.aureus 285 is 0.19 µg/mL (≈ 0.568 µM); in the assay on E.coli 1507E (setting [2]), 0.78 µg/mL (≈ 2.33 µM); in the assay with Str.faecium D, 1.56 µg/mL (≈ 4.67 µM); in the assay with Staph.aureus 503, 0.19 µg/mL (≈ 0.568 µM); in the assay with Staph.aureus SG511, 0.1 µg/mL (≈ 0.299 µM); in the assay with E.coli DC0, 1.56 µg/mL (≈ 4.67 µM). Moreover, the MIC in the assay with Ent.cloacae P99 is 12.5 µg/mL (≈ 37.4 µM); in the assay with Kl.aerog. 1082E, 0.39 µg/mL (≈ 1.17 µM); with Str.pyogenes 77A, below 0.025 µg/mL; with E.coli KN126, 0.39 µg/mL (≈ 1.17 µM); with Ent.cloacae 1321E (setting [3]), 0.39 µg/mL (≈ 1.17 µM).

With `CSc1cccc(C2=C(C(=O)O)N3C(=O)[C@H]([C@@H](C)O)[C@H]3S2)c1` [Example 3-SCH3], the MIC with E.coli DC2 is 0.39 µg/mL (≈ 1.16 µM); with Kl.aerog. 1522E, 6.25 µg/mL (≈ 18.5 µM); in the assay on E.coli 055 it was 3.13 µg/mL (≈ 9.28 µM); with Bac.subt. ATCC6633 it was 0.05 µg/mL (≈ 0.148 µM); in the assay with E.coli TEM, 6.25 µg/mL (≈ 18.5 µM); with Str.pyogenes 308A, below 0.05 µg/mL. In addition, the MIC was determined as 0.19 µg/mL (≈ 0.563 µM) with Staph.aureus 285; 6.25 µg/mL (≈ 18.5 µM) with E.coli 1507E (1507E); 1.56 µg/mL (≈ 4.62 µM) in the assay on Str.faecium D; 0.19 µg/mL (≈ 0.563 µM) in the assay on Staph.aureus 503; 0.1 µg/mL (≈ 0.296 µM) in the assay on Staph.aureus SG511; 12.5 µg/mL (≈ 37 µM) in the assay on E.coli DC0. The MIC was 50 µg/mL (≈ 148 µM) in the assay on Ent.cloacae P99; 0.39 µg/mL (≈ 1.16 µM) with Kl.aerog. 1082E; below 0.05 µg/mL with Str.pyogenes 77A; 6.25 µg/mL (≈ 18.5 µM) in the assay on E.coli KN126; 6.25 µg/mL (≈ 18.5 µM) in the assay with Ent.cloacae 1321E (1321E).

`CC(O)C1C(=O)N2C(C(=O)O)=C(c3ccc(C(N)=O)cc3)SC12` (centres unmarked) [Example 4-CONH2, 3-(4-aminocarbonylphenyl)-6-(1-hydroxyethyl)-7-oxo-4-thia-1-azabicyclo[3.2.0]hept-2-ene 2-carboxylic acid]: the MIC was 0.39 µg/mL (≈ 1.17 µM) with E.coli DC2; 0.39 µg/mL (≈ 1.17 µM) in the assay on Kl.aerog. 1522E (setting [1]); 0.19 µg/mL (≈ 0.568 µM) with E.coli 055; 0.05 µg/mL (≈ 0.15 µM) with Bac.subt. ATCC6633; 0.39 µg/mL (≈ 1.17 µM) in the assay on E.coli TEM; 0.013 µg/mL (≈ 0.0389 µM) in the assay on Str.pyogenes 308A. Further, the MIC in the assay with Staph.aureus 285 was determined as 0.1 µg/mL (≈ 0.299 µM); in the assay with E.coli 1507E (setting [2]), 0.39 µg/mL (≈ 1.17 µM); in the assay with Str.faecium D, 1.56 µg/mL (≈ 4.67 µM); in the assay with Staph.aureus 503, 0.1 µg/mL (≈ 0.299 µM); with Staph.aureus SG511, 0.05 µg/mL (≈ 0.15 µM); in the assay with E.coli DC0, 0.78 µg/mL (≈ 2.33 µM). Moreover, the MIC with Ent.cloacae P99 came out at 6.25 µg/mL (≈ 18.7 µM); in the assay with Kl.aerog. 1082E it was 0.39 µg/mL (≈ 1.17 µM); with Str.pyogenes 77A it was 0.013 µg/mL (≈ 0.0389 µM); in the assay with E.coli KN126 it was 0.39 µg/mL (≈ 1.17 µM); in the assay on Ent.cloacae 1321E (setting [3]), 0.39 µg/mL (≈ 1.17 µM).

Source of the values: patent publication EP0212404A1, “7-oxo-4-thia-1-azabicyclo [3.2.0] hept-2-ene derivatives” (HOECHST AKTIENGESELLSCHAFT, priority 1985, dated 1987).
